Reference: patent US4746675A, “External pharmaceutical composition” (Teijin Limited, priority 1983, dated 1988)
Where two headings read alike, the source gives them in different places. Each block holds one molecule with its values, some of them ahead of it.

Experiments:
[1] = concentration of indomethacin in rat blood after application of ointment to the back; details: for Concentration of indomethacin in the blood: rat, in vivo
Procedure: An ointment was prepared from 1 part by weight of indomethacin, 10 parts by weight of compound (168) and 89 parts by weight of a hydrophilic ointment (composed of 250 parts of white Vaseline, 220 parts by weight of stearyl alcohol, 120 parts by weight of propylene glycol, 15 parts by weight of sodium laurylsulfate, 0.25 part by weight of ethyl p-hydroxybenzoate, 0.15 part by weight of propyl p-hydroxybenzoate and a small amount of purified water). The back of a rat (body weight about 250 g) was cut by an electric hair-clipper, and 100 mg of the resulting ointment was applied by a finger to a circular unhaired portion, 4 cm in diameter. The blood was drawn from the tail of the rat periodically, and the concentration of indomethacin in the blood was determined periodically by high-performance liquid chromatography.
Various ointments were prepared from 1 part by weight of indomethacin, 10 parts of each of various penetration enhancers shown in Table 2 and the hydrophilic ointment, and tested as in Example 1.

[2] = concentration of cephalothin sodium in blood after intrarectal administration of suppository; assay type: in vivo, Beagle dog; details: versus the comparative suppository
Procedure: Eighty parts by weight of cacoa butter, 10 parts by weight of compound (168) and 10 parts by weight of cephalothin sodium were uniformly mixed and then slightly warmed. The mixture was filled in a suppository container to form a suppository containing 1 g of the mixture. The suppository was administered intrarectally to a Beagle dog, and the concentration of cephalothin sodium in the blood after administration was measured by the cup method.

serum calcium level [3] = assay: serum calcium after nasal administration of calcitonin nasal drop to rabbits; assay type: in vivo, New Zealand white male rabbit; details: for Percent decrease of the serum calcium level from before administration: [Asu^1.7]-eel calcitonin nasal drop, 15 units/50 μl, rabbit
Procedure: This nasal drop contained 15 units/50 μl of calcitonin. Fifty microliters of the nasal drop was administered to the nasal cavity of a New Zealand white male rabbit, and the concentration of calcium in the serum after administration was measured by using a calcium measuring kit (made by Iatron Co.).

blood glucose level = assay: blood glucose after intrarectal administration of hog insulin suppository to rabbits; assay type: in vivo, rabbit; details: for Percent decrease of the blood glucose level from that before the administration: hog insulin 9.6 units, intrarectal, rabbit; for absorption of insulin from the suppository: versus the comparative suppository
Procedure: Sixty parts by weight of fractionated coconut oil and 10 parts by weight of compound (168) or compound (173) were uniformly mixed, and then hog insulin was gradually added to form a uniform dispersion. The dispersion was filled in a gelatin capsule for suppositories to form a gelatin capsular suppository. These suppository contained 9.6 units of insulin. The suppository was intrarectally administered to a rabbit, and the blood glucose level after administration was measured by the glucose oxidase method.

serum calcium level [4] = assay: serum calcium after intrarectal administration of calcitonin composition to rats; assay type: in vivo, rat; details: versus the comparative suppository
Description: Cacao butter (93 parts by weight) and 7 parts by weight of compound (168) or compound (173) were uniformly mixed, and (Asu^1.7)-eel calcitonin was gradually added and mixed to form a uniform composition. The composition was slightly warmed, and placed into a suppository container to form a suppository for rats having a diameter of about 3 mm and a length of about 6 mm. This suppository contained 0.7 MRC unit of calcitonin. The suppository was intrarectally administered to a rat, and the concentration of calcium in the blood serum after administration was measured by using a calcium measuring kit (made by Iatoron Co.).
Various […] were prepared from cacao butter, the various penetration enhancers shown in Table 12 and [Asu^1.7 ]-eel calcitonin, and tested in the same way as in Example 85.

carrageenan edema = carrageenan edema inhibiting effect of betamethasone valerate ointments; assay type: in vivo, rat; details: for Percentage inhibition based on the control: 0.15% betamethasone valerate, 9.85% Compound (168) or none; for Percentage inhibition vs. control: Table 5, betamethasone valerate ointment with penetration enhancer
Procedure: An ointment was prepared from 0.15 part by weight of betamethasone valerate, 9.85 parts by weight of compound (168) and 90 parts by weight of the hydrophilic ointment.
In accordance with the method of R. Passarella et al. [Argneim. Forsch 30, (I), Nr. 4, 647-651 (1980)], the carrageenan edema inhibiting effect of the above ointment was examined. Specifically, 0.1 ml of a 1% carrageenan suspension in 0.9% NaCl solution was injected into the tip of the right leg of a rat (body weight 150-175 g). The foot volume was measured immediately after administration of carrageenan and 3, 5, and 6 hours after the administration by means of a mercury displacement device. 0.5, 1 and 2 hours after the administration of carrageenan, 100 mg of the ointment was well […] into each of the sites which underwent inflammation.
Various ointments were prepared from 0.15 part by weight of betamethasone valerate, […] of the various penetration enhancers shown in Table 5, and 85 parts by weight of the hydrophilic ointment, and tested in the same way as in Example 23.

[5] = system: eye (cornea, iris, conjunctiva); assay: primary eye irritation (Draize) in rabbits; assay type: in vivo, white native male rabbits; details: 2.4% soln, average of three rabbits
Procedure: enhancers of this invention shown in Table 17 was applied dropwise to one eye of white native male rabbits (body weight 2.0 to 3.0 kg; 3 per group) which, it had been ascertained, were free from any trouble at the cornea, iris and conjunctiva. Nothing was applied to the other eye. Thus, irritation of the absorption aid to the mucous membrane of the eyes were examined, and scores were calculated in accordance with the Draize's eye irritation evaluating method [Association of Foods, "Drugs and Cosmetics" (1957)].
As a control, sodium laurylsulfate, a kind of surface-active agent, was evaluated in the same way, and the results are also shown in Table 17.

[6] = diffusion of drug through egg shell membrane in diffusion cell; assay type: in vitro ADME
Procedure: A diffusion cell was partitioned by an egg shell membrane. […] While maintaining a temperature of 37° C., the two liquid phases were stirred, and after a lapse of a predetermined period of time, the amount of the drug which diffused into the acceptor side from the donor side was measured.
The diffusion cell used was a glass cell for use in an ordinary diffusion experiment. The egg shell was obtained by removing the contents of an egg from the shell, immersing the shell in 0.7% acetic acid for 30 minutes, subjecting it to ultrasonication for 15 minutes, and carefully peeling the membrane from the shell.
A control test was carried out in the same way as above except that only the drug was added to the donor side.
The amount of the drug which diffused to the acceptor side was measured 30 minutes later, and compared with the control.
The relative amount of the drug diffused from the drug-penetration enhancer system was calculated by taking the amount of the drug diffused from the control donor side as 100. […] Bull., Vol. 20, p.

[7] = 30 minutes, drug 0.05% with compound (168) 1.0% on donor side, drug alone = 100, 37° C.

Molecule: CCCCCCCC/C=C\CCCCCCCC(=O)OCC(O)COC(=O)[C@@H]1CCC(=O)N1 (stereo partly shown) [Compound (168), 2-hydroxy-3-oleoyloxy-1-pyroglutamyloxypropane]
absorption of indomethacin from the ointment ([1]; versus the comparative ointments): better | absorption of cephalothin sodium from the suppository [2]: better | Percent decrease of the serum calcium level from before administration (serum calcium level [3]; 1 hr): 6.1% | Percent decrease of the serum calcium level from before administration (serum calcium level [3]; 2 hrs): 4.0% | Percent decrease of the serum calcium level from before administration (serum calcium level [3]; 3 hrs): 1.8% | Percent decrease of the serum calcium level from before administration (serum calcium level [3]; 5 hrs): 0.9% | absorption of calcitonin from the nasal composition (serum calcium level [3]; versus the comparative composition): better | Percent decrease of the blood glucose level from that before the administration (blood glucose level; 30 min): 32.8% | Percent decrease of the blood glucose level from that before the administration (blood glucose level; 1 hr): 36.3% | Percent decrease of the blood glucose level from that before the administration (blood glucose level; 2 hrs): 19.1% | Percent decrease of the blood glucose level from that before the administration (blood glucose level; 3 hrs): 5.2% | absorption of insulin from the suppository (blood glucose level): better | absorption of calcitonin from the suppository (serum calcium level [4]): better | Percentage inhibition based on the control (carrageenan edema; 3 hrs): 19.7% | Percentage inhibition based on the control (carrageenan edema; 5 hrs): 36.8% | Percentage inhibition based on the control (carrageenan edema; 6 hrs): 39.2% | Primary irritation score, Conjunctiva ([5]; 1 hour): 2.0 | Primary irritation score, Cornea ([5]; 1 hour): 0 | Primary irritation score, Iris ([5]; 1 hour): 0 | Primary irritation score, Total ([5]; 1 hour): 2.0 | Primary irritation score, Conjunctiva ([5]; 3 hours): 2.0 | Primary irritation score, Cornea ([5]; 3 hours): 0 | Primary irritation score, Iris ([5]; 3 hours): 0 | Primary irritation score, Total ([5]; 3 hours): 2.0 | Primary irritation score, Conjunctiva ([5]; 6 hours): 1.3 | Primary irritation score, Cornea ([5]; 6 hours): 0 | Primary irritation score, Iris ([5]; 6 hours): 0 | Primary irritation score, Total ([5]; 6 hours): 1.3 | Primary irritation score, Conjunctiva ([5]; 24 hours): 0 | Primary irritation score, Cornea ([5]; 24 hours): 0 | Primary irritation score, Iris ([5]; 24 hours): 0 | Primary irritation score, Total ([5]; 24 hours): 0 | Primary irritation score, Conjunctiva ([5]; 48 hours): 0 | Primary irritation score, Cornea ([5]; 48 hours): 0 | Primary irritation score, Iris ([5]; 48 hours): 0 | Primary irritation score, Total ([5]; 48 hours): 0 | Primary irritation score, Conjunctiva ([5]; 72 hours): 0 | Primary irritation score, Cornea ([5]; 72 hours): 0 | Primary irritation score, Iris ([5]; 72 hours): 0 | Primary irritation score, Total ([5]; 72 hours): 0 | Primary irritation score, Conjunctiva ([5]; 96 hours): 0 | Primary irritation score, Cornea ([5]; 96 hours): 0 | Primary irritation score, Iris ([5]; 96 hours): 0 | Primary irritation score, Total ([5]; 96 hours): 0 | Primary irritation score, Conjunctiva ([5]; 168 hours): 0 | Primary irritation score, Cornea ([5]; 168 hours): 0 | Primary irritation score, Iris ([5]; 168 hours): 0 | Primary irritation score, Total ([5]; 168 hours): 0

Molecule: CCCCCCCCCCCCCCCCCC(=O)OCC(O)COC(=O)[C@@H]1CCC(=O)N1 (stereo partly shown) [Compound (173), 2-hydroxy-3-octadecanoyloxy-1-pyroglutamyloxypropane]
Percent decrease of the blood glucose level from that before the administration (blood glucose level; 30 min): 29.4% | Percent decrease of the blood glucose level from that before the administration (blood glucose level; 1 hr): 33.3% | Percent decrease of the blood glucose level from that before the administration (blood glucose level; 2 hrs): 18.6% | Percent decrease of the blood glucose level from that before the administration (blood glucose level; 3 hrs): 3.7% | absorption of insulin from the suppository (blood glucose level): better | absorption of calcitonin from the suppository (serum calcium level [4]): better | Percentage inhibition vs. control (carrageenan edema; 3 hrs): 15.3% | Percentage inhibition vs. control (carrageenan edema; 5 hrs): 32.3% | Percentage inhibition vs. control (carrageenan edema; 6 hrs): 33.4%

Molecule: CCN(CC)CCOC(=O)c1ccc(N)cc1 [Procaine]
Relative amount of the drug diffused [6, 7]: 149

Concentration of indomethacin in the blood ([1]; 60 min): 1400 ng/mL | Concentration of indomethacin in the blood ([1]; 180 min): 2200 ng/mL | Concentration of indomethacin in the blood ([1]; 300 min): 2000 ng/mL | Concentration of indomethacin in the blood ([1]; 420 min): 1800 ng/mL | Concentration of indomethacin in the blood ([1]; 1440 min): 700 ng/mL
Molecule: O=C1CC[C@@H](C(=O)O)N1 [Pyroglutamic acid, pyroglutamic acid]

Molecule: O=C(O)c1ccccc1O [Salicylic acid]
Relative amount of the drug diffused [6, 7]: 203

Molecule: CN1[C@@H]2C[C@@H](OC(=O)[C@H](CO)c3ccccc3)C[C@H]1[C@@H]1O[C@@H]12 [Scopolamine]
Relative amount of the drug diffused [6, 7]: 116

Relative amount of the drug diffused [6]: 159
Molecule: O=C(O)c1cc(=O)c2c(OCC(O)COc3cccc4oc(C(=O)O)cc(=O)c34)cccc2o1 [Sodium cromoglicate]

Relative amount of the drug diffused [6, 7]: 214
Molecule: CC1(C)O[C@@H]2C[C@H]3[C@@H]4CCC5=CC(=O)C=C[C@]5(C)[C@@]4(F)[C@@H](O)C[C@]3(C)[C@]2(C(=O)CO)O1 [Triamcinolone acetonide]

Relative amount of the drug diffused [6]: 122
Molecule: Nc1ccc(C(=O)O)cc1 [p-Aminobenzoic acid]

Molecule: Urokinase
Relative amount of the drug diffused [6, 7]: 115

Molecule: iso-Sorbitol nitrate
Relative amount of the drug diffused [6, 7]: 128
